This is an account of results in patent US12077495B2 (priority 2018, dated 2024).

Test [1] concerns photothrombotic focal ischemia in C57BL/6J mice. As to the kind of experiment: Photothrombotic model, behavioural assessment (grid-walking and cylinder tasks). Type of test: in vivo. The settings on record: for cylinder task, improvement vs saline / grid-walking task, reduction of asymmetry: 7 days after ischemia. Here is the method: All procedures were performed in accordance with the guidelines on the care and use of laboratory animals set out by the University of Otago, Animal Research Committee and the Guide for Care and Use of Laboratory Animals (NIH Publication No. 85-23, 1996). All in vivo studies were approved by the University of Otago Animal Ethics Committee and are reported according to the ARRIVE (Animal Research: Reporting In Vivo Experiments) guidelines. The photochemical cortical lesion model resembles situations of acute brain injury related clinically to stroke and traumatic brain injury (TBI). Focal ischemia was induced by photothrombosis in male C57BL/6J mice (8-10 weeks) weighing ˜23-30 g as previously described (Clarkson et al., 2010). Under anesthesia with isoflurane (2% to 2.5% in O2) mice were placed in a stereotactic apparatus, the skull exposed through a midline incision, cleared of connective tissue and dried. A cold light source (KL1500 LCD, Zeiss, Auckland, New Zealand) attached to a 40× objective providing a 2-mm diameter illumination was positioned 1.5 mm lateral from bregma. Then, 0.2 ml of Rose Bengal (Sigma-Aldrich, Auckland, New Zealand; 10 mg/ml in normal saline) was administered i.p. After 5 min, the brain was illuminated through the exposed intact skull for 15 min, while keeping body temperature at 37.0±0.3° C. degrees using a heating pad (Harvard apparatus, Holliston, MA, USA). The skin was glued and animals left in a cage placed on a heating pad during the wake-up phase. Mice were housed under a 12-hr light/dark cycle with ad libitum access to food and water. Further, the mice were monitored and weighed on a daily basis.
For in vivo studies, all compounds were dissolved in a mixture of sterile saline and H2O to obtain isotonicity (0.9%) and administered as 10 mg/ml and 10 μl of solution per gram mouse body weight. The injection of compound (i.p.) was performed 30 min, 3, 6 or 12 hrs after induction of the photothrombotic stroke. The vehicle groups received a corresponding volume of saline (0.9%) at the same time points (30 min, 3, 6 or 12 hrs).
Forelimb motor performance was determined using the cylinder and grid-walking tasks as previously described (Clarkson et al., 2010). All animals were tested both in a pre- and post-testing session, 1 week before and 3 days or 7 days after the ischemic insult, respectively. Observers who scored the behaviour were blinded to the treatment groups.

For a further test, the system named is GFAP, CD14 and MMP9 mRNA. As to the kind of experiment: qPCR of molecular markers in peri-infarct tissue after photothrombotic focal ischemia. It counts as in vivo, mice. The settings on record: 3 days post-stroke. Here is the method:
Tissue from the peri-infarct area was collected and snap-frozen 12-72 hrs post stroke and RNA was extracted using a RNA mini kit (Qiagen) following the instructions from the manufacturer. Extracted RNA was treated with DNAse using Turbo DNA-free kit (Ambion), all according to the manufacturer's protocol. The reverse transcription was performed using gScript™ cDNA SuperMix (Quanta Biosciences, Gaithersburg, MD, USA) on a standard PCR machine (25° C. for 5 min, 42° C. for 30 min, 85° C. for 5 min) and cDNA stored at −20° C. until further processing.
qPCR was performed in 96-well plates (Agilent Technologies, Santa Clara, CA, USA) mixing PerfeCTa SYBR Green FastMix (Quanta Biosciences), nuclease free water (Qiagen, West Sussex, UK), and primers (TAG Copenhagen A/S (Copenhagen, Denmark). The PCR was performed with an initial denaturation step of 95° C. for 30 s, followed by 40 cycles of 5 s at 95° C., 60° C. for 15 s and 72° C. for 10 s. To assure single-product amplification, a dissociation curve analysis was performed consisting of 60 s at 95° C., 30 s at 55° C. and 30 s at 95° C. The qPCR was performed using the Agilent Mx3005P qPCR system (Agilent Technologies), and the corresponding MxPro software was used to determine the Ct values. The ΔCt values were calculated using 2 (Reference Ct−Target Ct).
To investigate the protective mechanisms against brain damage following a focal ischemic insult, mRNA expression levels of the markers GFAP, CD14 and MMP9 were measured in the brain tissue surrounding the ischemic core 3 days post-stroke.
For orientation: In qPCR the cycle at which signal appears reflects the starting amount.

Test [2] has as its system permanent middle cerebral artery occlusion in C57BL/6J mice. In words: pMCAO model of focal ischemia, infarct volume. Type of test: in vivo. The settings on record: 175 mg/kg 30 min after pMCAO; day 3; saline 16.6. Here is the method:
The pMCAO study was performed using age-matched, young adult (7-8 weeks), male C57BL/6J mice (Taconic). Mice were housed in separate cages under diurnal lighting and given free access to food (1314 Altromin) and water. Mice were acclimatized for seven days prior to surgery in accordance with guidelines approved by the Danish Animal Ethical Committee.
Focal cerebral ischemia was made by permanent occlusion of the distal part of the left middle cerebral artery (MCA). Mice were anesthetized by injection of a mixture of Hypnorm (fentanyl citrate 0.315 mg/ml and fluanisone 10 mg/ml; Jansen-Cilag), Stesolid (5 mg/ml Diazepamum; Dumex) and distilled water (1:1:2; 0.20 ml/10 g body weight, s.c.). The mouse was placed on a 37±0.5° C. warm heating pad and a skin incision was made from eye to ear. […]
For quantification of the infarcted area, animals were perfused with saline and then with 4% paraformaldehyde (PFA) and the brain dissected out and submerged in 4% PFA for post-fixing overnight. […] Sections were mounted, stained for cresyl violet and the infarct volumes determined by measuring every 6th section through the entire infarct as described in Lie et al (2017). […] The glass slides were stored at −80° C. until further processing, and then Cresyl-Violet stained and quantified as described for the photothrombotic photochemical method. […]

Where [3] appears, read: 175 mg/kg 30 min after ischemia, day 3.
[4] abbreviates: 175 mg/kg 30 min after ischemia.

As for `O=C(O)C1=CC(O)CC1` (stereo not drawn) [Compound A, 3-hydroxycyclopent-1-enecarboxylic acid], the “cylinder task, reduction of asymmetry” value in test [1] (17.5 mg/kg 30 min after ischemia, day 3) is recorded as 40%; in test [1] (setting [3]), 42%. Also, the “grid-walking task, reduction vs saline” value in test [1] (17.5 mg/kg 30 min after ischemia, day 3, non-significant) came out at 10%. The “grid-walking task, improvement vs saline” value in test [1] (setting [3]) is recorded as 26%. Besides, the entries for the “cylinder task, improvement vs saline” value in test [1] (175 mg/kg 3 hr after ischemia), in test [1] (175 mg/kg 6 hr after ischemia) and in test [1] (175 mg/kg 12 hr after ischemia) were 16%, 20% and “non-significant”, respectively. The results for the “grid-walking task, reduction of asymmetry” value in test [1] (175 mg/kg 3 hr after ischemia), in test [1] (175 mg/kg 6 hr after ischemia) and in test [1] (175 mg/kg 12 hr after ischemia) were 31%, 22% and 21%, respectively. Moreover, the “MMP9 mRNA levels” value with GFAP, CD14 and MMP9 mRNA (17.5 mg/kg, vs saline) is listed as “significantly lower”; in the test with GFAP, CD14 and MMP9 mRNA (setting [4]) it was “markedly lowered”. In the test on GFAP, CD14 and MMP9 mRNA (setting [4]), the “CD14 mRNA levels” value is “markedly lowered”. Besides, the “GFAP mRNA levels” value in the test on GFAP, CD14 and MMP9 mRNA (peri-infarct tissue, vs saline) was “not different”. The infarct volume in test [2] is 12.3 mm^3.
